Laboratory results reported in patent US8148097B2, “Screening method for identification of compounds with calcium-independent phospholipase A2β (iPLA2β) modulating activity” (Washington University, priority 2005, dated 2012).

Legend:
iPLA2β [1] = biological target: T1, iPLA2β (Cricetulus griseus, UniProt A0A3L7I2I8); assay: Cardiolipin and phospholipid hydrolysis catalyzed by iPLA2β and inhibition by BEL; format: biochemical; settings: iPLA2b + BEL 10 μM, 20 min 37° C.
T1 construct: (His)6; made in house; host or cells: Sf9 insect cells (baculovirus)
T1 sequence (A0A3L7I2I8 1-752 isoform A0A3L7I2I8-2): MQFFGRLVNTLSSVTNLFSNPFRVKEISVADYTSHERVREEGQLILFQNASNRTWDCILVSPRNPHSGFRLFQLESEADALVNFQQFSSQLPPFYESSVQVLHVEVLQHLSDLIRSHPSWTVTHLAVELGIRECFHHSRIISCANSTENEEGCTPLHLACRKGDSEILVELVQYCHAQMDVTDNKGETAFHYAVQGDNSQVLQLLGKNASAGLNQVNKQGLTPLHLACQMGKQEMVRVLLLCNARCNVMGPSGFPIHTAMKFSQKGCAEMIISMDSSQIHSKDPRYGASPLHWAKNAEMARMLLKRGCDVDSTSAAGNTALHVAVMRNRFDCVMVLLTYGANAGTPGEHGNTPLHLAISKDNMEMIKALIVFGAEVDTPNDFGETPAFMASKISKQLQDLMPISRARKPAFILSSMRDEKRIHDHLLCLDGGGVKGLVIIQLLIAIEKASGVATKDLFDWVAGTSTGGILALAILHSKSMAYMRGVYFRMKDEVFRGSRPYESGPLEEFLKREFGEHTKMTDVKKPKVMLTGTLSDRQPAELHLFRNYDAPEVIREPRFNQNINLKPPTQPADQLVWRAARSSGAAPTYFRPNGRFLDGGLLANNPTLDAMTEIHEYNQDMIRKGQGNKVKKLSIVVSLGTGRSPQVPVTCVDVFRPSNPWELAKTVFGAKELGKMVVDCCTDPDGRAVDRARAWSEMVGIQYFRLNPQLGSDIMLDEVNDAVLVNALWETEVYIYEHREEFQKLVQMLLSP
Procedure: (§1) Purified calcium-independent phospholipase A2 (iPLA2β) and calcium-independent phospholipase A2γ were incubated with vesicles containing 10% cardiolipin (tetra 18:1) for 20 min at 37° C.

iPLA2γ [2] = biological target: T2, iPLA2γ (Homo sapiens, UniProt Q9NP80); assay: Cardiolipin and phospholipid hydrolysis catalyzed by iPLA2γ and inhibition by BEL; format: biochemical; settings: iPLA2g + BEL 10 μM, 20 min 37° C.
T2 sequence (Q9NP80 1-782): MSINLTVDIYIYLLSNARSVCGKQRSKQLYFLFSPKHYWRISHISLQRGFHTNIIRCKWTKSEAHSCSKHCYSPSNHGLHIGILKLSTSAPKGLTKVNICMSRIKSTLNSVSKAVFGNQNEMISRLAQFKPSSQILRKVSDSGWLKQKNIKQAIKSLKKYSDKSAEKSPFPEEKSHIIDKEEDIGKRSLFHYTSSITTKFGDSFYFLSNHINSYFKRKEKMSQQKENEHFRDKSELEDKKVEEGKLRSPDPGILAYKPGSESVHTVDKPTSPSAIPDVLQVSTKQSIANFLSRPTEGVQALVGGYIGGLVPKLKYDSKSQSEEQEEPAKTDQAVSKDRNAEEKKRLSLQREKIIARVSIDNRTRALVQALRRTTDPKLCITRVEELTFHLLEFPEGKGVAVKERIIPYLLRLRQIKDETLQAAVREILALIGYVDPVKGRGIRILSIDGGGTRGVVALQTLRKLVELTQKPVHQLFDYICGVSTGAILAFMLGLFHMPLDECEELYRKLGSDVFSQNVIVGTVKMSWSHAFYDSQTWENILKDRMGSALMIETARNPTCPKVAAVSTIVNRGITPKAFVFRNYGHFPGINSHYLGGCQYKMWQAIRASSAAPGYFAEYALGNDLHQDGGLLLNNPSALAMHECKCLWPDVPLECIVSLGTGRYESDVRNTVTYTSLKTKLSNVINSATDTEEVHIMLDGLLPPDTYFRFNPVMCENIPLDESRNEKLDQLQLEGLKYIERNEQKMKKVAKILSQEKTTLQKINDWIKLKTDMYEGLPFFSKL
Procedure: as §1

iPLA2γ [3] = biological target: T2, iPLA2γ; settings: racemic BEL, previous work; read-out: IC50, iPLA2γ phospholipase A2 activity; cited from earlier work
iPLA2β [4] = biological target: T1, iPLA2β; assay: Covalent acylation (autoacylation) of iPLA2β with [14C]-long chain acyl-CoAs; format: biochemical; settings: for effect of pretreatment on radiolabeling of iPLA2β with [1-14C]-oleoyl-CoA: 5 mM, 5 min at 30° C. pretreatment, FIG. 7
Procedure: FIG. 5—Equivalent amounts of the indicated [1-^14C]-acyl-CoA guests (5 mol %) were incorporated into host POPC (100 μM) vesicles and incubated for 1 hr at 37° C. with equal amounts of either wild-type (WT) iPLA2β(His)6 (peptide disclosed as SEQ ID NO: 4), S465A iPLA2β(His)6 (peptide disclosed as SEQ ID NO: 4), or BEL-pretreated WT iPLA2β(His)6 (peptide disclosed as SEQ ID NO: 4) enzyme as described in Experimental Procedures. Samples were resolved by SDS-PAGE (10% gel), fixed, and dried before visualization by autoradiography.
FIG. 6—Purified iPLA2β(His)6 (peptide disclosed as SEQ ID NO: 4) (2 μM) was incubated with the indicated concentrations of [1-^14C]-oleoyl-CoA present as guest in host POPC (100 μM) vesicles for 1 hr at 37° C. Samples were electrophoresed in parallel with standard amounts (0.5-10 nCi) of [^14C]-BSA of known activity (not shown). The fixed and dried gel was exposed to film and the resultant signals from the [^14C]-BSA were utilized to generate a standard curve utilizing ID software from a Kodak Imagestation to determine the incorporation of [1-^14C]-oleate into iPLA2β.
FIG. 7—Purified iPLA2β(His)6 (peptide disclosed as SEQ ID NO: 4) was incubated with [1-^14C]-oleoyl CoA (10 mol %) incorporated as guest in host POPC vesicles. N-ethylmaleimide and iodoacetamide samples were pretreated with 5 mM of either reagent for 5 min at 30° C. before addition of [1-^14C]-oleoyl-CoA. Samples were incubated with 1 N HCl, 1 N NaOH, or 2 N neutral hydroxylamine for 1 hr at 30° C. as indicated. All samples, except lane 1, were precipitated with CHCl3/MeOH and washed with 70% acetone before SDS-PAGE and autoradiography as described in Experimental Procedures.
FIG. 10—Purified iPLA2β(His)6 (peptide disclosed as SEQ ID NO: 4) was incubated with [1-^14C]-oleoyl CoA (10 mol %) incorporated as guest in host POPC vesicles in the presence of EGTA (5 mM), Ca^2+ (1 mM), CaM (3 μg), or Ca^2+-CaM for 1 h at 37° C. Samples were resolved by SDS-PAGE and the gel was soaked in Amplify fluorographic reagent, dried, and exposed to film as described in Experimental Procedures.
Covalent Modification of […] with [^14C]-long chain Acyl CoAs—Purified recombinant iPLA2β(His)6 (peptide disclosed as SEQ ID NO: 4) was incubated with POPC vesicles containing 10 mol % [1-^14C]-acyl-CoA for 1 h at 37° C. […] Chloroform/methanol precipitation of some samples was performed as described (66) utilizing 15 μg of bovine serum albumin as carrier. In tests to examine the nature of the covalent linkage between oleic acid and iPLA2β, acid (HCl), base (NaOH), and hydroxylamine were added to the indicated concentrations and the samples were incubated at 30° C. for 1 h. Bovine serum albumin (15 μg) and SDS-PAGE loading buffer were then added to each sample prior to dialysis against 50 mM Tris-HCl, pH 6.8 containing 10% glycerol and 1% SDS for 4 h. Samples were electrophoresed by SDS-PAGE, fixed (40% methanol containing 10% acetic acid), stained with Coomassie Blue R-250, incubated in Amplify fluorographic reagent, dried, and exposed to Kodak Biomax MR film for 2-5 days at −80° C.

iPLA2β [5] = biological target: T1, iPLA2β; assay: iPLA2β palmitoyl-CoA thioesterase (hydrolase) activity, palmitoyl-CoA guest in host vesicles; format: biochemical; settings: pre-incubated with purified iPLA2β(His)6; palmitoyl-CoA guest in POPC/DOPS host bilayers; read-out: IC50, iPLA2β palm-CoA hydrolase activity
Procedure: The enzyme was then added to 100 mM Tris-HCl, pH 7.2 containing 1 mM EGTA and [1-^14C]-palmitoyl-CoA guest (5 mol %) in POPC (100 μM) host vesicles for 2 min at 37° C. Following extraction into butanol, liberated [1-^14C]-palmitic acid was separated from [1-^14C]-palmitoyl-CoA by TLC and quantified by liquid scintillation spectrometry as described in Experimental Procedures.
FIG. 9—Calcium-independent iPLA2β was pre-incubated in the presence of Ca^2+ (1 mM) or Ca^2+-CaM (3 μg) on ice before addition to 95 μM POPC containing either 5 mol % [1-^14C]-POPC or [1-^14C]-palmitoyl-CoA in 100 mM Tris-HCl, pH 7.2. After incubation at 37° C. for 3 min, reactions were terminated by vortexing in the presence of butanol and released radiolabeled fatty acids were resolved by TLC and quantitated by liquid scintillation spectrometry as described in Experimental Procedures.
Phospholipase A2 and Acyl-CoA Hydrolase Enzymatic Assays—Purified recombinant iPLA2β(His)6 (peptide disclosed as SEQ ID NO: 4) (0.1-1 μg) was incubated with radiolabeled phospholipid or acyl-CoA in 25 mM Tris-HCl, pH 7.2 containing 1 mM EGTA (200 μl final volume) for 1-2 mm at 37° C. […] Incorporation of acyl-CoA into the POPC/DOPS vesicles employed was determined as described previously (64). […]

iPLA2β [6] = biological target: T1, iPLA2β; assay: iPLA2β-catalyzed acyl-CoA hydrolysis (substrate rate and selectivity); format: biochemical
Procedure: Reactions were terminated by vortexing with butanol and [1-^14C]-palmitic acid extracted into the butanol layer was resolved by TLC and quantified by liquid scintillation spectrometry as described in Experimental Procedures. B, iPLA2β catalyzed hydrolysis of palmitoyl-CoA guest in host POPC/DOPS vesicles. The indicated mol % of [^14C]-palmitoyl-CoA were incorporated into POPC/DOPS (90:10) vesicles (100 μM final vesicle lipid concentration). Each data point represents the average±S.E. for at least 4 separate determinations.
Released [1-^14C]-fatty acid was extracted into butanol by vortexing, resolved by TLC, and quantified by liquid scintillation spectrometry as described in Experimental Procedures. Each data point represents the average ±SE. from 8 separate determinations.
In tests using acyl-CoAs as guests in host phospholipid bilayers, radiolabeled acyl-CoAs were incorporated into POPC/DOPS (90:10 mol %) vesicles before addition to the reaction mix. […] Incorporation of acyl-CoA into the POPC/DOPS vesicles employed was determined as described previously (64). Reactions were terminated by extraction of the released radiolabeled fatty acids into 100 μl butanol, separation of fatty acids from unreacted substrate by thin layer chromatography, and quantitation by scintillation spectroscopy as previous described (65). […]

[7] = PAPC vesicles with 10 mol % tetra-18:1 CL

Compound: O=C1O/C(=C/Br)CCC1c1cccc2ccccc12 (racemic) [BEL, (E)-6-(bromomethylene)-3-(1-naphthalenyl)-2H-tetrahydropyran-2-one]
- 16:0 FA (iPLA2β [1]): 0.96 nmol/reaction
- 18:1 FA (iPLA2β [1]): 0.61 nmol/reaction
- 20:4 FA (iPLA2β [1]): 0.50 nmol/reaction
- Di-18:1 LysoCL (iPLA2β [1]): 0.15 nmol/reaction
- Tri-18:1 LysoCL (iPLA2β [1]): 0.10 nmol/reaction
- Tetra-18:1 CL (iPLA2β [1]; [7]): 1.95 nmol/reaction
- 16:0 FA (iPLA2γ [2]): 3.07 nmol/reaction
- 18:1 FA (iPLA2γ [2]): 0.54 nmol/reaction
- 20:4 FA (iPLA2γ [2]): 0.54 nmol/reaction
- Di-18:1 LysoCL (iPLA2γ [2]): 0.12 nmol/reaction
- Tri-18:1 LysoCL (iPLA2γ [2]): 0.14 nmol/reaction
- Tetra-18:1 CL (iPLA2γ [2]; [7]): 2.18 nmol/reaction
- IC50 (iPLA2γ [3]): ~3000 nM
- effect of BEL pretreatment on iPLA2β acylation with palmitoyl-CoA and stearoyl-CoA (iPLA2β [4]; BEL-pretreated iPLA2β, FIG. 5): marked increases in acylation

Compound: O=C1O/C(=C/Br)CC[C@@H]1c1cccc2ccccc12 [(R)-BEL]
- IC50 (iPLA2β [5]): 800 nM

Compound: O=C1O/C(=C/Br)CC[C@H]1c1cccc2ccccc12 [(S)-BEL]
- IC50 (iPLA2β [5]): ~100 nM

Compound: CC(C)(COP(=O)(O)OP(=O)(O)OC[C@H]1O[C@@H](n2cnc3c(N)ncnc32)[C@H](O)[C@@H]1OP(=O)(O)O)[C@@H](O)C(=O)NCCC(=O)NCCS [CoASH]
- inhibition of iPLA2β by high concentrations of CoASH (iPLA2β [6]): not inhibited

Compound: CCN1C(=O)C=CC1=O [N-ethylmaleimide]
- effect of pretreatment on radiolabeling of iPLA2β with [1-14C]-oleoyl-CoA (iPLA2β [4]): decreased radiolabeling

Compound: CCCCC/C=C\C/C=C\C/C=C\C/C=C\CCC[14C](=O)SCCNC(=O)CCNC(=O)[C@H](O)C(C)(C)COP(=O)(O)OP(=O)(O)OC[C@H]1O[C@@H](n2cnc3c(N)ncnc32)[C@H](O)[C@@H]1OP(=O)(O)O [[1-^14C]-arachidonoyl-CoA]
- signal intensity of iPLA2β acylation, fold less than with [1-14C]-oleoyl-CoA (iPLA2β [4]; wild-type iPLA2β, FIG. 5): ≈ 25 fold

Compound: NC(=O)CI [iodoacetamide]
- effect of pretreatment on radiolabeling of iPLA2β with [1-14C]-oleoyl-CoA (iPLA2β [4]): decreased radiolabeling

Compound: CCCCCCCCCCCCCCCC(=O)SCCNC(=O)CCNC(=O)[C@H](O)C(C)(C)COP(=O)(O)OP(=O)(O)OC[C@H]1O[C@@H](n2cnc3c(N)ncnc32)[C@H](O)[C@@H]1OP(=O)(O)O [palmitoyl-CoA]
- maximal rate of palmitoyl-CoA thioesterase activity catalyzed by iPLA2β (iPLA2β [6]; at 2.5 μM palmitoyl-CoA, FIG. 1A): ≈ 250 nmol palmitic acid×min^−1×mg^−1 protein
